The results in this text go back to patent US8105652B2, “Methods of making decomposable thin films of polyelectrolytes and uses thereof” (Massachusetts Institute of Technology, priority 2002, dated 2012).

A short description of this data set: Release from two-component films with barrier layers. The data set is classed as physicochemical. The source says: In one exemplary embodiment, a range of strategies were employed to control the relative positions of multiple, labeled species within a single film by constructing physical barriers to separate the two components. In one embodiment, films were constructed containing 20-40 base layers of polymer 1/HEP, followed by a set of “barrier” layers including polymer 1/SPS (degradable), PDAC/SPS (non-degradable), thermally cross-linked PAH/PAA, or nothing at all, followed by 20-40 surface layers of polymer 1/DS (FIG. 18). A similar set of films was also constructed, but with the order of the labeled components reversed (e.g., DS base layers and HEP surface layers).
Thus, the use of a single covalently cross-linked PAH/PAA layer was sufficient to separate the two components when deposited onto the surface of the linearly growing polymer 1/DS system, as evidenced by the two-stage release profile. Following a delay of approximately 25 h, the underlying DS was released with a linear profile.
FIG. 27A illustrates the effect of barrier layers on the average release rate from the exemplary two-component systems described above. It is apparent that the average release rate (taken as the average slope of the initial, linear portion of the release curve) of systems including of an underlying layer of linearly-growing DS can be broadly controlled using both multiple layers of a nondegradable system PDAC/SPS or as little as a single layer of cross-linked PAH/PAA. Further, by tuning any of the parameters affecting the degree of cross-linking (e.g., cross-linking time, temperature, number of cross-linked layers), the release rate can be dramatically altered. […] Thus, milder cross-linking conditions (e.g., lower temperatures) may allow for a greater degree of flexibility in tailoring release profiles. Further, aqueous, chemical cross-linking techniques using common biochemical reagents such as carbodiimides may represent a suitable alternative to thermal cross-linking when low temperature fabrication is required. Nevertheless, one skilled in the art will recognize that a range of approaches may be employed to control the release of underlying species, particularly when the underlying species lacks the ability to diffuse throughout the film.
General Considerations. A Harrick PDC-32G plasma cleaner was used to etch silicon substrates (3 cm×2 cm) following rinsing with methanol and deionized water and drying under a stream of dry nitrogen. Layer-by-layer thin films were deposited using an automated Carl Zeiss HMS Series Programmable Slide Stainer. Absorbances from growing films were measured using Fourier Transform Infrared Spectroscopy (FTIR) using a Nicolet Magna IR 550 Series II Spectrometer. Zinc selenide substrates used for transmission FTIR analysis were prepared using the same method employed for silicon substrates, Ellipsometric measurements for film thickness were conducted using a Gaertner Variable Angle Ellipsometer ([…], 70° incident angle) and Gaertner Ellipsometer Measurement Program (GEMP) Version 1.2 software interface. The release of radiolabeled polymers was quantified using a Tri-carb liquid scintillation counter (Model U2200). […] (PAH/PAA) films were thermally cross-linked by incubating films in a Yamoto DVS400 gravity convection oven at 215° C. for indicated time intervals.
Release Studies. For drug release experiments, radiolabeled LbL thin films were first constructed by alternately depositing polymer 1 and the indicated radiolabeled drug(s). Radiolabled deposition solutions containing ^3H-heparin were prepared by combining 1 mL of 50 μCi/mL ^3H-heparin (0.30 mCi/mg, Mn=12500) with 35 mL of 100 mM acetate buffer. Unlabeled heparin (Mn=12500) was added to bring the total concentration of heparin (unlabeled plus labeled) to 2 mg/mL (1.5-2 μCi/mL ^3H). […]

[1] abbreviates: DS base layer, heparin surface layer, 50 (PDAC/SPS) non-degradable dividing layers.
The mark [2] stands for this setting: DS base layer, heparin surface layer, 50 (Poly1/SPS) degradable dividing layers.
[3] abbreviates: DS base layer, heparin surface layer, separated by a single cross-linked layer of (PAH/PAA).
[4] abbreviates: DS base layer, heparin surface layer, without dividing layers.
Setting [5] is: heparin base layer, DS surface layer, (PDAC/SPS)50 non-degradable dividing layers.
Setting [6] is: heparin base layer, DS surface layer, (Poly1/SPS)20 degradable dividing layers.
The mark [7] stands for this setting: heparin base layer, DS surface layer, without dividing layers.
[8] abbreviates: polymer 1/DS base, single PAH/PAA bilayer cross-linked 20 min at 215° C., polymer 1/HEP surface.

Turning to Dextran sulfate sodium salt [DS], the release pattern result runs as follows: under setting [1], “simultaneous release”; under setting [2], “simultaneous release”; under setting [3], “sequential release”; under setting [4], “simultaneous release”; under setting [5], “simultaneous release”; under setting [6], “simultaneous release”. The release pattern entry under setting [7] was “simultaneous release”. Moreover, the “change in release rate” value (cross-linking times greater than 1.5 h at 215° C., or barriers with more than five cross-linked layers (data not shown)) was “one to two order of magnitude decreases”. Where the note is “multiple layers of PAH/PAA cross-linked longer than 1.5 h at 215° C., up to 45 days”, the “release of underlying DS” value was “no release of DS was observed”. The “average rate of DS release, slower than in corresponding films without covalently cross-linked barrier layers” value under setting [8] is recorded as “approximately 60%”. For the same substance, the “delay before release of underlying DS” value under setting [8] is recorded as “approximately 25 h”.

Heparin sodium salt: the release pattern result reads like this: under setting [1], “simultaneous release”; under setting [2], “simultaneous release”; under setting [3], “sequential release”; under setting [4], “simultaneous release”; under setting [5], “simultaneous release”; under setting [6], “simultaneous release”. Further, the release pattern entry under setting [7] is recorded as “simultaneous release”. Further, the “effect of barrier layer on release of heparin” value (heparin-loaded films coated with a single layer of (PAH/PAA) cross-linked 45 min at 215° C. vs untreated films) is recorded as “does not significantly delay”.
